From article PMC9612383, “Biological Activity of NHC-Gold-Alkynyl Complexes Derived from 3-Hydroxyflavones” (Pharmaceutics, 2022)

Assays:
Type in all cases: cell-based
[1] = tested on: panel of Gram-positive and Gram-negative strains; assay: Disk diffusion method, whole panel (summary in words); details: whole panel, Gram-positive and Gram-negative strains
Protocol: To evaluate the antibacterial potential of gold derivatives, […] bacterial strains were selected: E. coli, P. aeruginosa, S. enterica, E. faecalis, L. monocytogenes, S. epidermidis, S. aureus. Dis diffusion assay was performed following Clinical & Laboratory Standards Institute (CLSI) recommendations. Active cultures (0.5 McFarland) from all strains were spread onto Mueller–Hinton Agar (MHA, Oxoid, Basingstoke, UK) and disks impregnated with 10 µL of each gold complex or control (DMSO for negative control, phenol for positive control) were placed. Plates were and incubated for 22 h ± 2 h at 37 °C ± 1 °C and then the diameter of the inhibition zone was determined.
Given that NHC-gold derivatives might display antibacterial activity, we evaluated the antibacterial effect of the complexes toward a panel of Gram-positive and Gram-negative strains using the disk diffusion method. The selected strains are human pathogen or commensal bacteria and the results are summarized on Table 1.

P. aeruginosa = assay: Disk diffusion test; details: complex 5 μg, 24 h incubation; diameter including disk (6 mm)
Protocol: (§1) To evaluate the antibacterial potential of gold derivatives, six bacterial strains were selected: E. coli, P. aeruginosa, S. enterica, E. faecalis, L. monocytogenes, S. epidermidis, S. aureus. Dis diffusion assay was performed following Clinical & Laboratory Standards Institute (CLSI) recommendations. […] Plates were and incubated for 22 h ± 2 h at 37 °C ± 1 °C and then the diameter of the inhibition zone was determined.

E. coli 8739 = assay: Disk diffusion test; details: complex 5 μg, 24 h incubation; diameter including disk (6 mm)
Protocol: as §1

S. aureus 13565 = assay: Disk diffusion test; details: complex 5 μg, 24 h incubation; diameter including disk (6 mm)
Protocol: as §1

E. coli 25922 = assay: Disk diffusion test; details: complex 5 μg, 24 h incubation; diameter including disk (6 mm)
Protocol: as §1

E. coli 13216 = assay: Disk diffusion test; details: complex 5 μg, 24 h incubation; diameter including disk (6 mm)
Protocol: as §1

L. monocytogenes = assay: Disk diffusion test; details: complex 5 μg, 24 h incubation; diameter including disk (6 mm)
Protocol: as §1

S. enterica 14028 = assay: Disk diffusion test; details: complex 5 μg, 24 h incubation; diameter including disk (6 mm)
Protocol: as §1

E. faecalis = assay: Disk diffusion test; details: complex 5 μg, 24 h incubation; diameter including disk (6 mm)
Protocol: as §1

S. aureus 2593 = assay: Disk diffusion test; details: complex 5 μg, 24 h incubation; diameter including disk (6 mm)
Protocol: as §1

S. epidermidis = assay: Disk diffusion test; details: complex 5 μg, 24 h incubation; diameter including disk (6 mm)
Protocol: as §1

E. coli = assay: Scanning electron microscopy of treated E. coli; details: E. coli treated at 1/2× MIC and MIC, 24 h
Protocol: 500 μL of a E. coli culture (10^7 CFU mL^−^1) were added per well to a 12-well plate and were further treated with the complex 1b at its MIC and 1/2× MIC. A positive control of bacteria without any treatment and a negative control of only culture medium were included, following the same protocol as the rest of the conditions. Then, the plate was incubated at 37 °C with mild agitation for 24 h. After this time, the bacterial suspensions were transfered into 1.5 mL centrifugation tubes. Then, the bacteria were washed and fixed using glutaraldehyde 2.5% in phosphate buffer 10 mM at pH 7.2, with 2 h incubation. Then, bacteria were gradually dehydrated using EtOH solutions at different v/v% (25, 50, 75 and 100). 10 µL of the dehydrated bacteria solution was placed on a 5 × 5 mm Si waffle, left to dry and coated with a thin layer of carbon.

`Cn1cc[n+](C)[c]1[Au-][C]#CCOc1c(-c2ccc(Br)cc2)oc2ccccc2c1=O` [1b, [Au(Lb)(IMe)] (R = Br; IMe = C5H10N2)] was tested, and the “antibacterial effect (in words)” value [1] was “able to interfere with the development of both Gram positive and Gram negative strains”, the “Inhibition Zone” value (P. aeruginosa) was “-” and the “Inhibition Zone” value (E. coli 8739) was 11.10 ± 0.08 mm. The “Inhibition Zone” value (S. aureus 13565) was 16.58 ± 1.63 mm, the “Inhibition Zone” value (E. coli 25922) was 9.04 ± 2.17 mm and the “Inhibition Zone” value (E. coli 13216) was 10.95 ± 0.64 mm. For the same compound, the “Inhibition Zone” value (L. monocytogenes) was 18.50 ± 1.41 mm, the “Inhibition Zone” value (S. enterica 14028) was 9.39 ± 1.26 mm and the “Inhibition Zone” value (E. faecalis) was 12.50 ± 1.41 mm. For the same compound, the “Inhibition Zone” value (S. aureus 2593) was 13.76 ± 0.54 mm, the “Inhibition Zone” value (S. epidermidis) was 25.05 ± 1.48 mm and the “cell morphology by SEM” value (E. coli) was “rougher surface of bacteria, with the presence of wrinkles and creases”. The “size (length) of bacteria by SEM” value (E. coli) was “shrinking of bacteria, which is concentration dependent”.
